Assay: Antagonist activity at CRTH2 in human blood cells assessed as inhibition of PGD2-induced eosinophil cell shape change after 10 mins by flow cytometry

Compared with `O=C(O)COc1ccc(Cl)cc1C#Cc1cccc(Cl)c1`, `O=C(O)COc1ccc(Cl)cc1C#Cc1cccc(S(=O)(=O)CCO)c1` is 7-fold lower in IC50: 6900 nM for the first, 990 nM for the second. The second is the more potent here.

First: O=C(O)COc1ccc(Cl)cc1C#Cc1ccc(CO)cc1F
Second: CS(=O)(=O)c1ccc(F)c(C#Cc2cc(Cl)ccc2OCC(=O)O)c1
The IC50 of the first is 7.2-fold higher: 680 nM for the first, 95 nM for the second. The second is the more potent here.

First: Cc1ccc(S(C)(=O)=O)cc1C#Cc1cc(Cl)ccc1OCC(=O)O
Second: CS(=O)(=O)c1ccc(Cl)c(C#Cc2cc(Cl)ccc2OCC(=O)O)c1
The IC50 of the first is 2.5-fold higher: 64 nM for the first, 26 nM for the second.

Going from `CCCc1ccc(S(C)(=O)=O)cc1C#Cc1cc(Cl)ccc1OCC(=O)O` to `CC(C)c1ccc(S(C)(=O)=O)cc1C#Cc1cc(Cl)ccc1OCC(=O)O`, the IC50 falls from 1200 nM to 360 nM (3.3-fold). The second is the more potent here.

Compared with `CCCS(=O)(=O)c1ccc(C)c(C#Cc2cc(Cl)ccc2OCC(=O)O)c1`, `CCCS(=O)(=O)c1ccc(F)c(C#Cc2cc(Cl)ccc2OCC(=O)O)c1` is 3.5-fold lower in IC50: 81 nM for the first, 23 nM for the second. The second is the more potent here.

Going from `Cc1ccc(S(=O)(=O)C(C)C)cc1C#Cc1cc(Cl)ccc1OCC(=O)O` to `CC(C)S(=O)(=O)c1ccc(F)c(C#Cc2cc(Cl)ccc2OCC(=O)O)c1`, the IC50 falls from 190 nM to 91 nM (2.1-fold).

First: Cc1ccc(S(=O)(=O)CC(C)C)cc1C#Cc1cc(Cl)ccc1OCC(=O)O
Second: Cc1ccc(S(=O)(=O)NC(C)C)cc1C#Cc1cc(Cl)ccc1OCC(=O)O
The IC50 of the first is 2.1-fold lower: 120 nM for the first, 250 nM for the second.

Compared with `Cc1ccc(S(=O)(=O)c2ccccc2)cc1C#Cc1cc(Cl)ccc1OCC(=O)O`, `Cc1ccc(S(=O)(=O)N(C)C)cc1C#Cc1cc(Cl)ccc1OCC(=O)O` is 11-fold lower in IC50: 260 nM for the first, 23 nM for the second. The second is the more potent here.

First: Cc1ccc(S(=O)(=O)CCCO)cc1C#Cc1cc(Cl)ccc1OCC(=O)O
Second: CCCS(=O)(=O)c1ccc(Cl)c(C#Cc2cc(Cl)ccc2OCC(=O)O)c1
The IC50 of the first is 13-fold higher: 310 nM for the first, 23 nM for the second.

Going from `CC(C)S(=O)(=O)c1ccc(Cl)c(C#Cc2cc(Cl)ccc2OCC(=O)O)c1` to `Cc1ccc(S(=O)(=O)N(C)C(C)C)cc1C#Cc1cc(Cl)ccc1OCC(=O)O`, the IC50 rises from 67 nM to 140 nM (2.1-fold).

Going from `CCNS(=O)(=O)c1ccc(C)c(C#Cc2cc(Cl)ccc2OCC(=O)O)c1` to `COCCNS(=O)(=O)c1ccc(C)c(C#Cc2cc(Cl)ccc2OCC(=O)O)c1`, the IC50 rises from 40 nM to 88 nM (2.2-fold). The first is the more potent here.

First: Cc1ccc(S(=O)(=O)N2CCCCC2C)cc1C#Cc1cc(Cl)ccc1OCC(=O)O (centres undefined)
Second: COCCN(C)S(=O)(=O)c1ccc(C)c(C#Cc2cc(Cl)ccc2OCC(=O)O)c1
The IC50 of the first is 4-fold higher: 310 nM for the first, 77 nM for the second. The second is the more potent here.

Compared with `CN(C)S(=O)(=O)c1cncc(C#Cc2cc(Cl)ccc2OCC(=O)O)c1`, `CCCS(=O)(=O)c1cccc(C#Cc2cc(Cl)ccc2OCC(=O)O)c1` is 2.6-fold higher in IC50: 289 nM for the first, 750 nM for the second. The first is the more potent here.

First: O=C(O)COc1ccc(Cl)cc1C#Cc1ccc2c(c1)S(=O)(=O)c1ccccc1-2
Second: CCN(Cc1cc(-c2ccc(OC)cn2)ccc1-c1cc(CC(=O)O)ccc1OC)C(=O)C1CC1
The IC50 of the first is 1400-fold higher: 4300 nM for the first, 3 nM for the second. The second is the more potent here.

Assay: Inhibition of CRTH2-mediated chemotaxis of human eosinophils towards PGD2 after 30 mins by fluorescence counter

For `O=C(O)COc1ccc(Cl)cc1C#Cc1ccccc1Cl`, the IC50 was 123 nM.
